Assay results taken from patent US8426342B2, “Method for weed control in lawn” (priority 2008, dated 2013).

Columns and labels:
Type in all cases: in vivo
Trifolium repens = assay: Effectivity testing against weed plants ex. 5.2, co-formulation/granules in tall fescue turf, early post for the weed, Abbott %; settings: 50 g a.i./ha
Description: (§1) A co-formulation containing a mixture compounds no. […] Granules were applied with a shaker can.
Turf grass species: Festuca arundinacea, variety (tall fescue grass)
Weed species: Trifolium repens
(§2) Location: Sports turf, North Carolina, USA
(§3) Plot size: 1.4 m^2 and 3 replicates per treatment
(§4) Application timing: 27 Mar. 2007, spring application, early post for the weed
(§5) Effectivity was rated in percent (%) herbicidal effect compared with untreated control according to the method of Abbott mentioned above (see 5.1). 100% efficacy means full control; 0% efficacy means no control of the weed; all ratings above 80% are usually acceptable.

Poa annua [1] = assay: Effectivity testing against weed plants ex. 5.3, in bermuda grass turf, Abbott %; settings: 210 DAT
Description: as §1, §2, §3, §4, §5
(§6) The application and evaluation were performed as described in example 5.2 with the following difference:
(§7) Turf grass species: Cynodon dactylon, variety (bermuda grass)
(§8) Weed species: Digitaria sanguinalis, Poa annua

Digitaria sanguinalis = assay: as above
Description: as §1, §2, §3, §4, §5, §6, §7, §8

Poa annua [2] = assay: Effectivity testing against weed plants ex. 5.1, sprayable formulation on dormant Bermuda grass turf, Abbott %; settings: 25 g a.i./ha
Description: Each plot was divided by different pre-treatments 1 week before application of the trial treatments: • A) Pre-treatment with glyphosate-isopropylammonium allowing to evaluate in this section the pre-emergence effect against weeds. • B) No pre-treatment, present winter annual weeds are received a post-emergence application.
2005, applied on dormant turf in winter
as §5, with “according to the formula [(X−Y)/X]100 where X is the absolute level/scoring of the control plants, Y is the level/scoring of the treated plants.” for “mentioned above (see 5.1).”

Cc1ccc2c(c1)[C@H](Nc1nc(N)nc([C@@H](C)F)n1)[C@@H](C)C2 (stereo in doubt) [(A21)/(A22), indaziflam]
Herbicidal effect (%) on Trifolium repens (Trifolium repens; 30 DAT): 60%
Herbicidal effect (%) on Trifolium repens (Trifolium repens; 381 DAT): 90%
Herbicidal effect (%) on Poa annua (Poa annua [1]; 12.5 g a.i./ha): 70%
Herbicidal effect (%) on Poa annua (Poa annua [1]; 25.0 g a.i./ha): 97%
Herbicidal effect (%) on Poa annua (Poa annua [1]; 50.0 g a.i./ha): 100%
Herbicidal effect (%) on Poa annua (Poa annua [1]; 100.0 g a.i./ha): 100%
Herbicidal effect (%) on Poa annua (Poa annua [1]; 200.0 g a.i./ha): 100%
Herbicidal effect (%) on Digitaria sanguinalis (Digitaria sanguinalis; 12.5 g a.i./ha, 35 DAT): 87%
Herbicidal effect (%) on Digitaria sanguinalis (Digitaria sanguinalis; 12.5 g a.i./ha, 56 DAT): 63%
Herbicidal effect (%) on Digitaria sanguinalis (Digitaria sanguinalis; 12.5 g a.i./ha, 68 DAT): 73%
Herbicidal effect (%) on Digitaria sanguinalis (Digitaria sanguinalis; 12.5 g a.i./ha, 107 DAT): 70%
Herbicidal effect (%) on Digitaria sanguinalis (Digitaria sanguinalis; 12.5 g a.i./ha, 138 DAT): 43%
Herbicidal effect (%) on Digitaria sanguinalis (Digitaria sanguinalis; 12.5 g a.i./ha, 180 DAT): 57%
Herbicidal effect (%) on Digitaria sanguinalis (Digitaria sanguinalis; 25.0 g a.i./ha, 35 DAT): 95%
Herbicidal effect (%) on Digitaria sanguinalis (Digitaria sanguinalis; 25.0 g a.i./ha, 56 DAT): 96%
Herbicidal effect (%) on Digitaria sanguinalis (Digitaria sanguinalis; 25.0 g a.i./ha, 68 DAT): 98%
Herbicidal effect (%) on Digitaria sanguinalis (Digitaria sanguinalis; 25.0 g a.i./ha, 107 DAT): 97%
Herbicidal effect (%) on Digitaria sanguinalis (Digitaria sanguinalis; 25.0 g a.i./ha, 138 DAT): 93%
Herbicidal effect (%) on Digitaria sanguinalis (Digitaria sanguinalis; 25.0 g a.i./ha, 180 DAT): 93%
Herbicidal effect (%) on Digitaria sanguinalis (Digitaria sanguinalis; 50.0 g a.i./ha, 35 DAT): 97%
Herbicidal effect (%) on Digitaria sanguinalis (Digitaria sanguinalis; 50.0 g a.i./ha, 56 DAT): 98%
Herbicidal effect (%) on Digitaria sanguinalis (Digitaria sanguinalis; 50.0 g a.i./ha, 68 DAT): 99%
Herbicidal effect (%) on Digitaria sanguinalis (Digitaria sanguinalis; 50.0 g a.i./ha, 107 DAT): 99%
Herbicidal effect (%) on Digitaria sanguinalis (Digitaria sanguinalis; 50.0 g a.i./ha, 138 DAT): 100%
Herbicidal effect (%) on Digitaria sanguinalis (Digitaria sanguinalis; 50.0 g a.i./ha, 180 DAT): 100%
Herbicidal effect (%) on Digitaria sanguinalis (Digitaria sanguinalis; 100.0 g a.i./ha, 35 DAT): 96%
Herbicidal effect (%) on Digitaria sanguinalis (Digitaria sanguinalis; 100.0 g a.i./ha, 56 DAT): 99%
Herbicidal effect (%) on Digitaria sanguinalis (Digitaria sanguinalis; 100.0 g a.i./ha, 68 DAT): 99%
Herbicidal effect (%) on Digitaria sanguinalis (Digitaria sanguinalis; 100.0 g a.i./ha, 107 DAT): 99%
Herbicidal effect (%) on Digitaria sanguinalis (Digitaria sanguinalis; 100.0 g a.i./ha, 138 DAT): 99%
Herbicidal effect (%) on Digitaria sanguinalis (Digitaria sanguinalis; 100.0 g a.i./ha, 180 DAT): 99%
Herbicidal effect (%) on Digitaria sanguinalis (Digitaria sanguinalis; 200.0 g a.i./ha, 35 DAT): 98%
Herbicidal effect (%) on Digitaria sanguinalis (Digitaria sanguinalis; 200.0 g a.i./ha, 56 DAT): 99%
Herbicidal effect (%) on Digitaria sanguinalis (Digitaria sanguinalis; 200.0 g a.i./ha, 68 DAT): 99%
Herbicidal effect (%) on Digitaria sanguinalis (Digitaria sanguinalis; 200.0 g a.i./ha, 107 DAT): 100%
Herbicidal effect (%) on Digitaria sanguinalis (Digitaria sanguinalis; 200.0 g a.i./ha, 138 DAT): 100%
Herbicidal effect (%) on Digitaria sanguinalis (Digitaria sanguinalis; 200.0 g a.i./ha, 180 DAT): 100%
Herbicidal effect (%) on Poa annua, Post-emergence application without pre-treatment (Poa annua [2]; 123 DAT): 27%
Herbicidal effect (%) on Poa annua, Pre-emergence application after pre-treatment (Poa annua [2]; 123 DAT): 96%
Herbicidal effect (%) on Poa annua, Post-emergence application without pre-treatment (Poa annua [2]; 157 DAT): 77%
Herbicidal effect (%) on Poa annua, Pre-emergence application after pre-treatment (Poa annua [2]; 157 DAT): 92%
Herbicidal effect (%) on Poa annua, Post-emergence application without pre-treatment (Poa annua [2]; 187 DAT): 98%
Herbicidal effect (%) on Poa annua, Pre-emergence application after pre-treatment (Poa annua [2]; 187 DAT): 96%
